# Experimental data published in paper PMC6850767, “Light-at-night exposure affects brain development through pineal allopregnanolone-dependent mechanisms” (eLife, 2019).
# Target: T1, chicken mPRα (membrane progesterone receptor α) (Gallus gallus, UniProt C6KGD4)
# T1 construct: gene PAQR7; membrane fraction or whole cells; band approx. 42 kDa
# T1 sequence (C6KGD4 1-346): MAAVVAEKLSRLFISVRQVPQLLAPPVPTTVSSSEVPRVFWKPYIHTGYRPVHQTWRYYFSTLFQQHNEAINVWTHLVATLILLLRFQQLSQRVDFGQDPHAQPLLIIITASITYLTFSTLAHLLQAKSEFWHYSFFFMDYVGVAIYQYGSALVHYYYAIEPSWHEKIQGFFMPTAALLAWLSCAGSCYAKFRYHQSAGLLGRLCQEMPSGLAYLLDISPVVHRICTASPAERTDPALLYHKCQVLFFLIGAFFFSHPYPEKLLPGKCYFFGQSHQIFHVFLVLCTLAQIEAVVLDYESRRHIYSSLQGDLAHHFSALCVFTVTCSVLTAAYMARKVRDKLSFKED
# Experiment: radioligand saturation binding, Scatchard plot, cell membrane fraction
smiles,measurement,value
"CC(=O)[C@H]1CC[C@H]2[C@@H]3CC[C@H]4C[C@H](O)CC[C@]4(C)[C@H]3CC[C@]12C [compound 2, allopregnanolone]",Kd,11.8 ± 3.1 nM
